Results from patent US20210267960A1, “METHODS OF TREATMENT OF INFLAMMATORY CYTOKINE-RELATED ARTHRITIC DISORDERS” (Bridge Pharma Inc., priority 2020, published 2021).

Assays:
[1] = Preclinical studies of immune-suppressive effects; details: compared with the steroids
Excerpt: Norketotifen is thus particularly useful in the treatment of diseases treatable with the TNFα blocking agents adalimumab (Humira®), infliximab (Remicade®, Inflectra®), certolizumab pegol (Cimzia®), golimumab (Simponi®) and enteracept (Enbrel®); the IL-4 and IL-13 inhibitors dupilumab (Dupixent®), pascolizumab, pitrakinra, and lebrikizumab, anrukinzumab, and tralokinumab; and the IL-5 inhibitors mepolizumab, reslizumab and benralizumab. Advantageously, norketotifen is a small molecule and oral and parenteral administration of norketotifen can provide for convenience and significant cost savings.

human white blood cells = experiment: Induced cytokine release from stimulated human white blood cells (overall conclusion); format: cell-based; details: PHA 5 μg/ml, 16 hours; conclusion in words
Description: The objective of this study was to assess the ability of norketotifen to inhibit induced cytokine release from stimulated human white blood cells.
The study was conducted in two phases. The first phase included optimization of the test methodology and including dose-range finding studies, using buffy coats from 3 human donors, stimulated with phytohemagglutinin (PHA). Following optimization of the test conditions, a final protocol was issued. In the following Main Study, white blood cells (buffy coats) from 5 healthy human donors were stimulated with PHA, 5 μg/ml. The concentrations of the test article and the duration of exposure were optimized to obtain acceptable dose-response ratios. Thus, the inhibitory effects of three concentrations of NK and one concentration of ketotifen were evaluated in the Main Study. The buffy coats containing white blood cells from 5 male human donors were resuspended in assay media and were pre-incubated for 30 min with either vehicle/saline, ketotifen 10 μM ([…]) or norketotifen 1 μM and 10 μM and 100 μM, corresponding to 0.411 μg/ml, 4.11 μg/ml and 41.1 μg/ml, resp. Following these preincubations, the white blood cells were stimulated for 16 hours with PHA, 5 μg/ml. The cell system supernatants were then harvested and stored frozen pending analyses. […]

mouse = mouse model of sedation; U.S. Pat. Nos. 7,226,934 and 7,557,128; cited from earlier work

| SMILES | Adverse immune-suppressive effects [1] | Inhibition of the release of cytokines from human white blood cells (human white blood cells) | Sedative effects (mouse) |
| --- | --- | --- | --- |
| O=C1Cc2ccccc2C(=C2CCNCC2)c2ccsc21 (racemic) [Norketotifen, norketotifen] | free from the adverse immune-suppressive effects | potently and dose-dependently inhibited |  |
| CN1CCC(=C2c3ccccc3CC(=O)c3sccc32)CC1 [Ketotifen, ketotifen, reference compound] |  | No statistically significant inhibition |  |
| O=C(O)/C=C/C(=O)O.O=C1Cc2ccccc2C(=C2CCNCC2)c2ccsc21 [R-isomer, R-norketotifen] |  |  | sedative effects were attributed to the R-isomer |
